Assay results reported in the supplement of paper PMC13380429.

Legend:
Details in all cases: 72 h
[1] = system: HepG2; experiment: drug sensitivity score (DSS) for viability; higher = more toxic; extreme values may be limits of the assay
[2] = system: Caco-2; experiment: as above
[3] = system: Vero E6; experiment: as above
[4] = system: U2OS; experiment: as above
[5] = system: Calu-3; experiment: as above
[6] = system: HepG2; experiment: cell viability relative to DMSO; higher = less toxic
[7] = system: Caco-2; experiment: as above
[8] = system: Vero E6; experiment: as above
[9] = system: U2OS; experiment: as above
[10] = system: Calu-3; experiment: as above
[11] = system: HepG2; experiment: relative viability EC50 (midpoint between 100% and the lowest measured viability); higher = less toxic
[12] = system: Vero E6; experiment: as above
[13] = system: U2OS; experiment: as above
[14] = system: Calu-3; experiment: as above
[15] = system: Caco-2; experiment: as above

Structure (SMILES): Cc1cc(Nc2nc(N[C@@H](C)c3ccc(F)cc3)c(C#N)cc2F)n[nH]1 [AZ960]
- drug sensitivity score [1]: 10.9
- drug sensitivity score [2]: 5.4
- drug sensitivity score [3]: 7.4
- drug sensitivity score [4]: 7.4
- drug sensitivity score [5]: 5.8
- cell viability ([6]; 1 nM): 111%
- cell viability ([6]; 10 nM): 105%
- cell viability ([6]; 100 nM): 96.7%
- cell viability ([6]; 1000 nM): 43.2%
- cell viability ([6]; 10000 nM): 33.6%
- cell viability ([7]; 1 nM): 112%
- cell viability ([7]; 10 nM): 109%
- cell viability ([7]; 100 nM): 118%
- cell viability ([7]; 1000 nM): 77.8%
- cell viability ([7]; 10000 nM): 51.8%
- cell viability ([8]; 1 nM): 99.3%
- cell viability ([8]; 10 nM): 99.6%
- cell viability ([8]; 100 nM): 100%
- cell viability ([8]; 1000 nM): 65.9%
- cell viability ([8]; 10000 nM): 40.9%
- cell viability ([9]; 1 nM): 104%
- cell viability ([9]; 10 nM): 101%
- cell viability ([9]; 100 nM): 104%
- cell viability ([9]; 1000 nM): 76.3%
- cell viability ([9]; 10000 nM): 27.8%
- cell viability ([10]; 1 nM): 118%
- cell viability ([10]; 10 nM): 103%
- cell viability ([10]; 100 nM): 96.1%
- cell viability ([10]; 1000 nM): 83.9%
- cell viability ([10]; 10000 nM): 38.9%
- relative viability EC50 [11]: 0.422 µM
- relative viability EC50 [12]: 0.883 µM
- relative viability EC50 [13]: 1.33 µM
- relative viability EC50 [14]: 1.51 µM

Structure (SMILES): O=C1c2ccccc2-c2c(NCCc3ccccc3)c(=O)[nH]c3cccc1c23 [BRD7389]
- drug sensitivity score [1]: 10.1
- drug sensitivity score [2]: 5.3
- drug sensitivity score [3]: 7.7
- drug sensitivity score [4]: 6.7
- drug sensitivity score [5]: 2.8
- cell viability ([6]; 1 nM): 98.8%
- cell viability ([6]; 10 nM): 101%
- cell viability ([6]; 100 nM): 99%
- cell viability ([6]; 1000 nM): 45.7%
- cell viability ([6]; 10000 nM): 34.8%
- cell viability ([7]; 1 nM): 103%
- cell viability ([7]; 10 nM): 102%
- cell viability ([7]; 100 nM): 97.3%
- cell viability ([7]; 1000 nM): 71.6%
- cell viability ([7]; 10000 nM): 61.9%
- cell viability ([8]; 1 nM): 102%
- cell viability ([8]; 10 nM): 102%
- cell viability ([8]; 100 nM): 101%
- cell viability ([8]; 1000 nM): 69.1%
- cell viability ([8]; 10000 nM): 33.5%
- cell viability ([9]; 1 nM): 97.2%
- cell viability ([9]; 10 nM): 102%
- cell viability ([9]; 100 nM): 95.5%
- cell viability ([9]; 1000 nM): 68.5%
- cell viability ([9]; 10000 nM): 44.5%
- cell viability ([10]; 1 nM): 97.4%
- cell viability ([10]; 10 nM): 100%
- cell viability ([10]; 100 nM): 97.6%
- cell viability ([10]; 1000 nM): 83.1%
- cell viability ([10]; 10000 nM): 72.5%
- relative viability EC50 [11]: 0.525 µM
- relative viability EC50 [12]: 1.06 µM
- relative viability EC50 [13]: 0.795 µM

Structure (SMILES): N#Cc1cc2c(OCC(O)CN3CCN(C(c4ccccc4)c4ccccc4)CC3)cccc2[nH]1 (stereo unspecified)
- drug sensitivity score [1]: 3.2
- drug sensitivity score [2]: 2.5
- drug sensitivity score [3]: 2.5
- drug sensitivity score [4]: 0
- drug sensitivity score [5]: 0
- cell viability ([6]; 1 nM): 83.5%
- cell viability ([6]; 10 nM): 96.1%
- cell viability ([6]; 100 nM): 96.8%
- cell viability ([6]; 1000 nM): 101%
- cell viability ([6]; 10000 nM): 38.9%
- cell viability ([7]; 1 nM): 106%
- cell viability ([7]; 10 nM): 92.7%
- cell viability ([7]; 100 nM): 112%
- cell viability ([7]; 1000 nM): 92.9%
- cell viability ([7]; 10000 nM): 68.3%
- cell viability ([8]; 1 nM): 101%
- cell viability ([8]; 10 nM): 103%
- cell viability ([8]; 100 nM): 95.5%
- cell viability ([8]; 1000 nM): 98.9%
- cell viability ([8]; 10000 nM): 53.5%
- cell viability ([9]; 1 nM): 96.3%
- cell viability ([9]; 10 nM): 101%
- cell viability ([9]; 100 nM): 102%
- cell viability ([9]; 1000 nM): 100%
- cell viability ([9]; 10000 nM): 92.5%
- cell viability ([10]; 1 nM): 105%
- cell viability ([10]; 10 nM): 93.4%
- cell viability ([10]; 100 nM): 95.2%
- cell viability ([10]; 1000 nM): 97.8%
- cell viability ([10]; 10000 nM): 95.7%
- relative viability EC50 [11]: 3.3 µM
- relative viability EC50 [13]: > 10 µM
- relative viability EC50 [14]: > 10 µM

Structure (SMILES): Cc1sc2c(c1C)C(c1ccc(Cl)cc1)=N[C@@H](CC(=O)OC(C)(C)C)c1nnc(C)n1-2 [JQ1-(+)]
- drug sensitivity score [1]: 10
- drug sensitivity score [3]: 17.3
- drug sensitivity score [4]: 9.2
- drug sensitivity score [5]: 6

Structure (SMILES): COc1cc2ncnc(Oc3cccc(NC(=O)Nc4cc(C(C)(C)C(F)(F)F)on4)c3)c2cc1OC
- drug sensitivity score [1]: 3
- drug sensitivity score [2]: 0
- drug sensitivity score [3]: 0
- cell viability ([6]; 1 nM): 114%
- cell viability ([6]; 10 nM): 93.9%
- cell viability ([6]; 100 nM): 110%
- cell viability ([6]; 1000 nM): 93.7%
- cell viability ([6]; 10000 nM): 59.8%
- cell viability ([7]; 1 nM): 102%
- cell viability ([7]; 10 nM): 94.1%
- cell viability ([7]; 100 nM): 97.5%
- cell viability ([7]; 1000 nM): 93.2%
- cell viability ([7]; 10000 nM): 93.8%
- cell viability ([8]; 1 nM): 100%
- cell viability ([8]; 10 nM): 97.1%
- cell viability ([8]; 100 nM): 108%
- cell viability ([8]; 1000 nM): 108%
- cell viability ([8]; 10000 nM): 88.3%
- relative viability EC50 [15]: > 10 µM
- relative viability EC50 [12]: > 10 µM

Structure (SMILES): COc1ccc(CNC(=O)c2cc(-c3cncc(C)c3)ncc2-c2nccs2)nc1OC [MK-3697]
- drug sensitivity score [1]: 0
- drug sensitivity score [3]: 0
- drug sensitivity score [4]: 0
- drug sensitivity score [5]: 0
- cell viability ([6]; 1 nM): 99.8%
- cell viability ([6]; 10 nM): 91.2%
- cell viability ([6]; 100 nM): 94.9%
- cell viability ([6]; 1000 nM): 98.5%
- cell viability ([6]; 10000 nM): 105%
- cell viability ([8]; 1 nM): 103%
- cell viability ([8]; 10 nM): 104%
- cell viability ([8]; 100 nM): 109%
- cell viability ([8]; 1000 nM): 111%
- cell viability ([8]; 10000 nM): 92.7%
- cell viability ([9]; 1 nM): 97.4%
- cell viability ([9]; 10 nM): 103%
- cell viability ([9]; 100 nM): 94.7%
- cell viability ([9]; 1000 nM): 99.3%
- cell viability ([9]; 10000 nM): 99.1%
- cell viability ([10]; 1 nM): 89%
- cell viability ([10]; 10 nM): 101%
- cell viability ([10]; 100 nM): 83.4%
- cell viability ([10]; 1000 nM): 92.5%
- cell viability ([10]; 10000 nM): 99.9%
- relative viability EC50 [11]: > 10 µM
- relative viability EC50 [12]: > 10 µM
- relative viability EC50 [13]: > 10 µM
- relative viability EC50 [14]: > 10 µM

Structure (SMILES): O=C(Nc1ccc(OC(F)(F)F)cc1)c1sccc1NCc1ccnc2ccccc12 [OSI-930]
- drug sensitivity score [1]: 2.5
- drug sensitivity score [2]: 1.7
- drug sensitivity score [4]: 0
- drug sensitivity score [5]: 0.4
- cell viability ([6]; 1 nM): 103%
- cell viability ([6]; 10 nM): 98.5%
- cell viability ([6]; 100 nM): 91.3%
- cell viability ([6]; 1000 nM): 89%
- cell viability ([6]; 10000 nM): 67%
- cell viability ([7]; 1 nM): 107%
- cell viability ([7]; 10 nM): 102%
- cell viability ([7]; 100 nM): 94.1%
- cell viability ([7]; 1000 nM): 97.9%
- cell viability ([7]; 10000 nM): 69.3%
- cell viability ([9]; 1 nM): 97.8%
- cell viability ([9]; 10 nM): 101%
- cell viability ([9]; 100 nM): 99.8%
- cell viability ([9]; 1000 nM): 104%
- cell viability ([9]; 10000 nM): 92.2%
- cell viability ([10]; 1 nM): 91.6%
- cell viability ([10]; 10 nM): 111%
- cell viability ([10]; 100 nM): 93.6%
- cell viability ([10]; 1000 nM): 112%
- cell viability ([10]; 10000 nM): 78%
- relative viability EC50 [13]: > 10 µM
- relative viability EC50 [14]: > 10 µM

Structure (SMILES): COc1ccc(OC)c([C@@H](O)CNC(=O)CN)c1 [midodrine]
- drug sensitivity score [1]: 0
- drug sensitivity score [3]: 0
- drug sensitivity score [4]: 0
- drug sensitivity score [5]: 0
- cell viability ([6]; 1 nM): 109%
- cell viability ([6]; 10 nM): 102%
- cell viability ([6]; 100 nM): 118%
- cell viability ([6]; 1000 nM): 99.1%
- cell viability ([6]; 10000 nM): 109%
- cell viability ([8]; 1 nM): 102%
- cell viability ([8]; 10 nM): 97.8%
- cell viability ([8]; 100 nM): 106%
- cell viability ([8]; 1000 nM): 95.8%
- cell viability ([8]; 10000 nM): 108%
- cell viability ([9]; 1 nM): 99.1%
- cell viability ([9]; 10 nM): 104%
- cell viability ([9]; 100 nM): 100%
- cell viability ([9]; 1000 nM): 106%
- cell viability ([9]; 10000 nM): 105%
- cell viability ([10]; 1 nM): 89.1%
- cell viability ([10]; 10 nM): 98.7%
- cell viability ([10]; 100 nM): 95.7%
- cell viability ([10]; 1000 nM): 95.6%
- cell viability ([10]; 10000 nM): 98.3%
- relative viability EC50 [11]: > 10 µM
- relative viability EC50 [12]: > 10 µM
- relative viability EC50 [13]: > 10 µM
- relative viability EC50 [14]: > 10 µM
